# Reference: patent publication US20130244999A1, “Substituted Heterocyclic Compounds” (Incyte Corporation, priority 2008, published 2013)
# pIC50: −log10 of the molar value.
# Molecular target: T1, histamine H4 receptor (Homo sapiens, UniProt Q9H3N8)
# T1 construct: expressed in transfected cells; host or cells: HEK293SFM cells (membrane preparation)
# Assay: Inhibition of histamine H4 receptor (Table A1; H4 membrane binding assay)
# Settings: histamine H4 receptor; "> a" = exceeds experiment limit
# How it was run: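 Membranes came from recombinant HEK293SFM cells expressing human H4, homogenized in 50 mM Tris-HCl pH 7.5 with protease inhibitors. Nonspecific binding was set with 1000× unlabeled ligand. Bound radioligand was separated on PEI-treated GF/B filters and counted by liquid scintillation.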
row,pIC50,Structure (SMILES)
1,7.62,"CC1Cc2ccc(C3CCN(C(=O)N(C)C)CC3)cc2CN1c1cc(N2CCN(C)CC2)nc(N)n1 (stereo not drawn) [Example 144, 4-{2-[2-Amino-6-(4-methylpiperazin-1-yl)pyrimidin-4-yl]-3-methyl-1,2,3,4-tetrahydroisoquinolin-7-yl}-N,N-dimethylpiperidine-1-carboxamide]"
2,7.44,"CCNC(=O)N1CCC(c2ccc3c(c2)CN(c2cc(N4CCN(C)CC4)nc(N)n2)C(C)C3)CC1 (stereo not drawn) [Example 145, 4-{2-[2-Amino-6-(4-methylpiperazin-1-yl)pyrimidin-4-yl]-3-methyl-1,2,3,4-tetrahydroisoquinolin-7-yl}-N-ethylpiperidine-1-carboxamide]"
3,7.64,"CC(=O)N1CCC(c2ccc3c(c2)CN(c2cc(N4CCN(C)CC4)nc(N)n2)C(C)C3)CC1 (stereo not drawn) [Example 146, 4-[7-(1-Acetylpiperidin-4-yl)-3-methyl-3,4-dihydroisoquinolin-2 (1H)-yl]-6-(4-methylpiperazin-1-yl)pyrimidin-2-amine]"
4,7.92,"COC(=O)N1CCC(c2ccc3c(c2)CN(c2cc(N4CCN(C)CC4)nc(N)n2)C(C)C3)CC1 (stereo not drawn) [Example 147, Methyl 4-{2-[2-amino-6-(4-methylpiperazin-1-yl)pyrimidin-4-yl]-3-methyl-1,2,3,4-tetrahydroisoquinolin-7-yl}piperidine-1-carboxylate]"
5,7.51,"CC1Cc2ccc(C3CCN(S(C)(=O)=O)CC3)cc2CN1c1cc(N2CCN(C)CC2)nc(N)n1 (stereo not drawn) [Example 148, 4-[3-Methyl-7-[1-(methylsulfonyl)piperidin-4-yl]-3,4-dihydroisoquinolin-2(1H)-yl]-6-(4-methylpiperazin-1-yl)pyrimidin-2-amine]"
6,7.58,"CCC(=O)N1CCC(c2ccc3c(c2)CN(c2cc(N4CCN(C)CC4)nc(N)n2)C(C)C3)CC1 (stereo not drawn) [Example 149, 4-(4-Methylpiperazin-1-yl)-6-[3-methyl-7-(1-propionylpiperidin-4-yl)-3,4-dihydroisoquinolin-2 (1H)-yl]pyrimidin-2-amine]"

# The remaining lines, values behind:
row,Structure (SMILES),pIC50
1,"CC1Cc2ccc(C3=CCN(C(=O)NC4CCCC4)CC3)cc2CN1c1cc(N2CCN(C)CC2)nc(N)n1 (stereo not drawn) [Example 136, 4-{2-[2-Amino-6-(4-methylpiperazin-1-yl)pyrimidin-4-yl]-3-methyl-1,2,3,4-tetrahydroisoquinolin-7-yl}-N-cyclopentyl-3,6-dihydropyridine-1(2H)-carboxamide]",7.17
2,"CC1Cc2ccc(C3=CCN(c4cc(C#N)ccn4)CC3)cc2CN1c1cc(N2CCN(C)CC2)nc(N)n1 (stereo not drawn) [Example 137, 4-{2-[2-Amino-6-(4-methylpiperazin-1-yl)pyrimidin-4-yl]-3-methyl-1,2,3,4-tetrahydroisoquinolin-7-yl}-3,6-dihydro-2H-1,2′-bipyridine-4′-carbonitrile]",7.08
3,"CC1Cc2ccc(C3CCN(C(=O)CC4CCCC4)CC3)cc2CN1c1cc(N2CCN(C)CC2)nc(N)n1 (stereo not drawn) [Example 138, 4-[7-[1-(Cyclopentylacetyl)piperidin-4-yl]-3-methyl-3,4-dihydroisoquinolin-2(1H)-yl]-6-(4-methylpiperazin-1-yl)pyrimidin-2-amine]",7.19
4,"CC(C)OC(=O)N1CCC(c2ccc3c(c2)CN(c2cc(N4CCN(C)CC4)nc(N)n2)C(C)C3)CC1 (stereo not drawn) [Example 139, Isopropyl 4-{2-[2-amino-6-(4-methylpiperazin-1-yl)pyrimidin-4-yl]-3-methyl-1,2,3,4-tetrahydroisoquinolin-7-yl}piperidine-1-carboxylate]",7.27
5,"CC(C)NC(=O)N1CCC(c2ccc3c(c2)CN(c2cc(N4CCN(C)CC4)nc(N)n2)C(C)C3)CC1 (stereo not drawn) [Example 140, 4-{2-[2-Amino-6-(4-methylpiperazin-1-yl)pyrimidin-4-yl]-3-methyl-1,2,3,4-tetrahydroisoquinolin-7-yl}-N-isopropylpiperidine-1-carboxamide]",7.10
6,"CC1Cc2ccc(C3CCN(C(=O)N(C)C)CC3)cc2CN1c1cc(N2CCN(C)CC2)nc(N)n1 (stereo not drawn) [Example 141, 4-{2-[2-Amino-6-(4-methylpiperazin-1-yl)pyrimidin-4-yl]-3-methyl-1,2,3,4-tetrahydroisoquinolin-7-yl}-N,N-dimethylpiperidine-1-carboxamide]",7.40
